Assay results as given in patent US20220387604A1, “SELECTIVE DUAL HISTONE DEACETYLASE 6/8 (HDAC6/8) DEGRADERS AND METHODS OF USE THEREOF” (DANA-FARBER CANCER INSTITUTE, INC., priority 2019, published 2022).

Key:
[1] = target: T1, full length human HDAC8-EGFP (Homo sapiens, UniProt Q9BY41); test: HDAC8 reporter assay (HDAC8-EGFP with mCherry reporter); format: cell-based; conditions: 5 hour treatment, FIG. 6; hook effect at higher concentrations
T1 construct: Cells stably expressing the full length human HDAC8-EGFP with mCherry reporter; expressed in transfected cells; Cilantro2 vector (Addgene, 74450)
T1 sequence (Q9BY41 1-377): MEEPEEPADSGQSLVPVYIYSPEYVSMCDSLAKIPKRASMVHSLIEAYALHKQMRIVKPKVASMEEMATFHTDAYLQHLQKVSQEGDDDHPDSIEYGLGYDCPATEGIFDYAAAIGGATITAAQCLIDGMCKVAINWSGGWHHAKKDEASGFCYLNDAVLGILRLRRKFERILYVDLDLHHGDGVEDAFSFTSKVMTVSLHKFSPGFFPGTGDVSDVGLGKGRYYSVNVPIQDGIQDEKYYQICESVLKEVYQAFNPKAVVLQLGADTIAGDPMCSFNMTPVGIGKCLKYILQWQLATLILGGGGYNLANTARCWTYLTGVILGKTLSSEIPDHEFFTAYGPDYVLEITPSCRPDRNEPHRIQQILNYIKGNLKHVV
Method: Cells stably expressing the full length human HDAC8-EGFP with mCherry reporter in Cilantro2 vector (Addgene, 74450) were seeded at 30-50% confluency in 384-well plates with 50 μL FluoroBrite™ DMEM media (Thermo Fisher Scientific, A18967) containing 10% FBS per well a day before compound treatment. Compounds were dispensed using a D300e Digital Dispenser (HP), normalized to 0.5% DMSO, and incubated with cells for 5 hours. The assay plate was imaged immediately using an Acumen® High Content Imager (TTP Labtech) with 488 nm and 561 nm lasers in […] per well format. The resulting images were analyzed using CellProfiler™.
A series of image analysis steps (‘image analysis pipeline’) was constructed. First, the red and green channels were aligned and cropped to target the middle of each well (to avoid analysis of heavily clumped cells at the edges), and a background illumination function was calculated for both red and green channels of each well individually and subtracted to correct for illumination variations across the 384-well plate from various sources of error. An additional step was then applied to the green channel to suppress the analysis of large auto fluorescent artifacts and enhance the analysis of cell specific fluorescence by way of selecting for objects under a given size, 30 A.U., and with a given shape, speckles. mCherry-positive cells were then identified in the red channel filtering for objects between 8-60 pixels in diameter and using intensity to distinguish between clumped objects. The green channel was then segmented into GFP positive and negative areas and objects were labeled as GFP positive if at least 40% of it overlapped with a GFP positive area. The fraction of GFP-positive cells/mCherry-positive cells in each well was then calculated, and the green and red images were rescaled for visualization. The values for the concentrations that lead to a 50% degradation (DC50) were calculated using the nonlinear fit variable slope model in GraphPad Prism software.

HDAC6/8 = test: Quantitative proteomics of cellular protein abundance in Kelly cells: HDAC6/8; format: cell-based, human; conditions: moderated t-test, scatter plots FIG. 2A-2C, 4A-4B
Method: Lysis buffer (8 M Urea, 50 mM NaCl, 50 mM 4-(2hydroxyethyl)-1-piperazineethanesulfonic acid (EPPS) pH 8.5, protease and phosphatase inhibitors from Roche®) were added to the cell pellets and homogenized by 20 passes through a 21 gauge (1.25 in. long) needle to achieve a cell lysate with a protein concentration between 1-4 mg mL^−1. A micro-BCA assay (Pierce™) was used to determine the final protein concentration in the cell lysate. 200 μg of protein for each sample were reduced and alkylated as described in Donovan et al., Elife 7:e38430 (2018).
Proteins were precipitated using methanol/chloroform. Four volumes of methanol were added to the cell lysate, followed by one volume of chloroform, and finally three volumes of water. The mixture was vortexed and centrifuged to separate the chloroform phase from the aqueous phase. The precipitated protein was washed with three volumes of methanol, centrifuged and the resulting washed precipitated protein was allowed to air dry. The precipitated protein was resuspended in 4 M Urea, 50 mM HEPES pH 7.4, followed by dilution to 1 M urea with the addition of 200 mM EPPS, pH 8. Proteins were first digested with LysC (1:50; enzyme:protein) for 12 hours at room temperature. The LysC digestion was diluted to 0.5 M Urea with 200 mM EPPS pH 8 followed by digestion with trypsin (1:50; enzyme:protein) for 6 hours at 37° C. Tandem mass tag (TMT) reagents (Thermo Fisher Scientific) were dissolved in anhydrous acetonitrile (ACN) according to manufacturer's instructions.
Anhydrous ACN was added to each peptide sample to a final concentration of 30% v/v, and labeling was induced with the addition of TMT reagent to each sample at a ratio of 1:4 peptide:TMT label. The 10-plex labeling reactions were performed for 1.5 hours at room temperature and the reaction quenched by the addition of hydroxylamine to a final concentration of 0.3% for 15 minutes at room temperature. The sample channels were combined at a 1:1:1:1:1:1:1:1:1:1:1 ratio, desalted using C18 solid phase extraction cartridges (Waters®) and analyzed by LC-MS for channel ratio comparison. Samples were then combined using the adjusted volumes determined in the channel ratio analysis and dried down in a speed vacuum. The combined sample was then resuspended in 1% formic acid, and acidified (pH 2-3) before being subjected to desalting with C18 SPE (Sep-Pak®, Waters®). Samples were then offline fractionated into 96 fractions by high pH reverse-phase HPLC (Agilent® LC1260) through an aeris peptide xb-c18 column (Phenomenex®) with mobile phase A containing 5% acetonitrile and 10 mM NH4HCO3 in LC-MS grade H2O, and mobile phase B containing 90% acetonitrile and 10 mM NH4HCO3 in LC-MS grade H2O (both pH 8.0). The 96 resulting fractions were then pooled in a non-continuous manner into 24 fractions and these fractions were used for subsequent mass spectrometry analysis.
Data were collected using an Orbitrap Fusion™ Lumos™ mass spectrometer (Thermo Fisher Scientific, San Jose, Calif., USA) coupled with a Proxeon EASY-nLC™ 1200 LC pump (Thermo Fisher Scientific). Peptides were separated on an EasySpray™ ES803 75 μm inner diameter microcapillary column (ThermoFisher Scientific).
Each analysis used an MS3-based TMT method as described in McAlister et al., Anal. Chem. 86(14):7150-7158 (2014). The data were acquired using a mass range of m/z 340-1350, resolution 120,000, automatic gain control (AGC) target 1×10^6, maximum injection time 100 ms, dynamic exclusion of 120 seconds for the peptide measurements in the Orbitrap Fusion™ Lumos™ mass spectrometer. Data dependent MS2 spectra were acquired in the ion trap with a normalized collision energy (NCE) set at 55%, AGC target set to 1.5×10^5 and a maximum injection time of 150 ms. […]

SMILES | degradation of GFP tagged HDAC8 in the reporter cell lines [1] | reduction in HDAC6/8 protein levels compared to DMSO treated cells (HDAC6/8)
O=C(/C=C/c1ccc(CN(CCOCCOCCOCCNc2cccc3c2C(=O)N(C2CCC(=O)NC2=O)C3=O)CCc2c[nH]c3ccccc23)cc1)NO (stereo not drawn) [Compound 4, (E)-3-(4-(2-(2-(1H-indol-3-yl)ethyl)-13-((2-(2,6-dioxopiperidin-3-yl)-1,3-dioxoisoindolin-4-yl)amino)-5,8,11-trioxa-2-azatridecyl)phenyl)-N-hydroxyacrylamide] | degradation of GFP tagged HDAC8 | 
O=C(/C=C/c1ccc(CN(CCOCCOCCOCCOCCNc2cccc3c2C(=O)N(C2CCC(=O)NC2=O)C3=O)CCc2c[nH]c3ccccc23)cc1)NO (stereo not drawn) [Compound 5, (E)-3-(4-(2-(2-(1H-indol-3-yl)ethyl)-16-((2-(2,6-dioxopiperidin-3-yl)-1,3-dioxoisoindolin-4-yl)amino)-5,8,11,14-tetraoxa-2-azahexadecyl)phenyl)-N-hydroxyacrylamide] | degradation of GFP tagged HDAC8 | significant reduction
